Measurements: ChEMBL document CHEMBL1141575, “Preparation and in vitro biological evaluation of tetrapyrrole ethanolamide derivatives as potential anticancer agents” (Bioorg Med Chem Lett, 2008)

Key:
[1] = Survival of human MDA-MB cells at 50 uM under deem light after 96 hrs by MTT assay relative to control; type: functional; details: read-out: Survival
HeLa [2] = test: Survival of human HeLa cells at 0.1 uM under deem light after 96 hrs by MTT assay relative to control; type: functional; details: read-out: Survival
NCI-H69 [3] = test: Survival of human H69 cells at 0.1 uM under deem light after 96 hrs by MTT assay relative to control; type: functional; details: NCI-H69, 96 h, read-out: Survival
SiHa [4] = test: Survival of human SIHA cells at 10 uM under deem light after 96 hrs by MTT assay relative to control; type: functional; details: read-out: Survival
NCI-H69 [5] = test: Cytotoxicity against human H69 cells under deem light after 96 hrs by MTT assay; type: functional, cell-based; details: NCI-H69, 96 h
[6] = Survival of human MDA-MB cells at 0.1 uM under deem light after 96 hrs by MTT assay relative to control; type: functional; details: read-out: Survival
K562 [7] = test: Survival of human K562 cells at 10 uM under deem light after 96 hrs by MTT assay relative to control; type: functional; details: K562, 96 h, read-out: Survival
[8] = Survival of human 2780.9S cells at 50 uM under deem light after 96 hrs by MTT assay relative to control; type: functional; details: read-out: Survival
[9] = Photohemolysis in human RBC at 520 nM under exposure to light for 10 mins; type: ADME, cell-based, Erythrocyte; details: human red blood cells, read-out: Activity
[10] = Survival of human MDA-MB cells at 1 uM under deem light after 96 hrs by MTT assay relative to control; type: functional; details: read-out: Survival
Raji [11] = test: Survival of human Raji cells at 10 uM under deem light after 96 hrs by MTT assay relative to control; type: functional; details: read-out: Survival
[12] = Survival of human 2780.9S cells at 1 uM under deem light after 96 hrs by MTT assay relative to control; type: functional; details: read-out: Survival
[13] = Photohemolysis in human RBC in absence of light; type: ADME, cell-based; details: erythrocyte
[14] = Survival of human H209 cells at 10 uM under deem light after 96 hrs by MTT assay relative to control; type: functional; details: NCI-H209, 96 h, read-out: Survival
K562 [15] = test: Survival of human K562 cells at 0.1 uM under deem light after 96 hrs by MTT assay relative to control; type: functional; details: K562, 96 h, read-out: Survival
[16] = Survival of human 2780.9S cells at 10 uM under deem light after 96 hrs by MTT assay relative to control; type: functional; details: read-out: Survival
SiHa [17] = test: Survival of human SIHA cells at 100 uM under deem light after 96 hrs by MTT assay relative to control; type: functional; details: read-out: Survival
[18] = Survival of human H209 cells at 100 uM under deem light after 96 hrs by MTT assay relative to control; type: functional; details: NCI-H209, 96 h, read-out: Survival
K562 [19] = test: Survival of human K562 cells at 1 uM under deem light after 96 hrs by MTT assay relative to control; type: functional; details: K562, 96 h, read-out: Survival
NCI-H69 [20] = test: Survival of human H69 cells at 100 uM under deem light after 96 hrs by MTT assay relative to control; type: functional; details: NCI-H69, 96 h, read-out: Survival
[21] = Survival of human H209 cells at 50 uM under deem light after 96 hrs by MTT assay relative to control; type: functional; details: NCI-H209, 96 h, read-out: Survival
[22] = Photohemolysis in human RBC assessed as concentration required to 50% hemolysis under light exposure for 5 mins; type: ADME, cell-based, Erythrocyte; details: human red blood cells, read-out: Activity
K562 [23] = test: Cytotoxicity against human K562 cells under deem light after 96 hrs by MTT assay; type: functional, cell-based; details: K562, 96 h
K562 [24] = test: Survival of human K562 cells at 100 uM under deem light after 96 hrs by MTT assay relative to control; type: functional; details: K562, 96 h, read-out: Survival
SiHa [25] = test: Survival of human SIHA cells at 50 uM under deem light after 96 hrs by MTT assay relative to control; type: functional; details: read-out: Survival
[26] = Survival of human MDA-MB cells at 10 uM under deem light after 96 hrs by MTT assay relative to control; type: functional; details: read-out: Survival
Raji [27] = test: Survival of human Raji cells at 50 uM under deem light after 96 hrs by MTT assay relative to control; type: functional; details: read-out: Survival
[28] = Survival of human H209 cells at 1 uM under deem light after 96 hrs by MTT assay relative to control; type: functional; details: NCI-H209, 96 h, read-out: Survival
[29] = Cytotoxicity against human MDA-MB cells under deem light after 96 hrs by MTT assay; type: functional, cell-based
K562 [30] = test: Survival of human K562 cells at 50 uM under deem light after 96 hrs by MTT assay relative to control; type: functional; details: K562, 96 h, read-out: Survival
Daudi = test: Cytotoxicity against human Daudi cells under deem light after 96 hrs by MTT assay; type: functional, cell-based
Raji [31] = test: Survival of human Raji cells at 1 uM under deem light after 96 hrs by MTT assay relative to control; type: functional; details: read-out: Survival
[32] = Photohemolysis in human RBC assessed as concentration required to 50% hemolysis under light exposure for 10 mins; type: ADME, cell-based, Erythrocyte; details: human red blood cells, read-out: Activity
SiHa [33] = test: Survival of human SIHA cells at 1 uM under deem light after 96 hrs by MTT assay relative to control; type: functional; details: read-out: Survival
HeLa [34] = test: Cytotoxicity against human HeLa cells under deem light after 96 hrs by MTT assay; type: functional, cell-based
Raji [35] = test: Cytotoxicity against human Raji cells under deem light after 96 hrs by MTT assay; type: functional, cell-based
HeLa [36] = test: Survival of human HeLa cells at 100 uM under deem light after 96 hrs by MTT assay relative to control; type: functional; details: read-out: Survival
Raji [37] = test: Survival of human Raji cells at 100 uM under deem light after 96 hrs by MTT assay relative to control; type: functional; details: read-out: Survival
[38] = Survival of human MDA-MB cells at 100 uM under deem light after 96 hrs by MTT assay relative to control; type: functional; details: read-out: Survival
Raji [39] = test: Survival of human Raji cells at 0.1 uM under deem light after 96 hrs by MTT assay relative to control; type: functional; details: read-out: Survival
HeLa [40] = test: Survival of human HeLa cells at 50 uM under deem light after 96 hrs by MTT assay relative to control; type: functional; details: read-out: Survival
NCI-H69 [41] = test: Survival of human H69 cells at 50 uM under deem light after 96 hrs by MTT assay relative to control; type: functional; details: NCI-H69, 96 h, read-out: Survival
NCI-H69 [42] = test: Survival of human H69 cells at 1 uM under deem light after 96 hrs by MTT assay relative to control; type: functional; details: NCI-H69, 96 h, read-out: Survival
[43] = Survival of human H209 cells at 0.1 uM under deem light after 96 hrs by MTT assay relative to control; type: functional; details: NCI-H209, 96 h, read-out: Survival
HeLa [44] = test: Survival of human HeLa cells at 10 uM under deem light after 96 hrs by MTT assay relative to control; type: functional; details: read-out: Survival
[45] = Survival of human 2780.9S cells at 100 uM under deem light after 96 hrs by MTT assay relative to control; type: functional; details: read-out: Survival
[46] = Survival of human 2780.9S cells at 0.1 uM under deem light after 96 hrs by MTT assay relative to control; type: functional; details: read-out: Survival
NCI-H69 [47] = test: Survival of human H69 cells at 10 uM under deem light after 96 hrs by MTT assay relative to control; type: functional; details: NCI-H69, 96 h, read-out: Survival
[48] = Cytotoxicity against human 2780.9S cells under deem light after 96 hrs by MTT assay; type: functional, cell-based
HeLa [49] = test: Survival of human HeLa cells at 1 uM under deem light after 96 hrs by MTT assay relative to control; type: functional; details: read-out: Survival
SiHa [50] = test: Cytotoxicity against human SIHA cells under deem light after 96 hrs by MTT assay; type: functional, cell-based

Compound: C=Cc1c(C)c2cc3nc(c4c5[nH]c(cc6nc(cc1[nH]2)C(C)=C6CC)c(C)c5C(=O)[C@@H]4C(=O)OC)[C@@H](CCC(=O)OC)[C@@H]3C [METHYL PHEOPHORBIDE A]
- viability at 50 µM [1]: 101%
- viability at 0.1 µM (HeLa [2]): 89.1%
- viability at 0.1 µM (NCI-H69 [3]): 70.7%
- viability at 10 µM (SiHa [4]): 90.8%
- IC50 (NCI-H69 [5]): > 100 µM
- viability at 0.1 µM [6]: 128%
- viability at 10 µM (K562 [7]): 97.3%
- viability at 50 µM [8]: 90.1%
- hemolysis at 10 min, 0.52 µM [9]: 18%
- viability at 1 µM [10]: 115%
- viability at 10 µM (Raji [11]): 107%
- viability at 1 µM [12]: 94.9%
- Activity [13]: Non-toxic
- viability at 10 µM [14]: 91.7%
- viability at 0.1 µM (K562 [15]): 86%
- viability at 10 µM [16]: 93.4%
- viability at 100 µM (SiHa [17]): 68%
- viability at 100 µM [18]: 82.3%
- viability at 1 µM (K562 [19]): 93.3%
- viability at 100 µM (NCI-H69 [20]): 63.6%
- viability at 50 µM [21]: 85.2%
- HC50 at 5 min [22]: > 525 nM
- IC50 (K562 [23]): > 100 µM
- viability at 100 µM (K562 [24]): 106%
- viability at 50 µM (SiHa [25]): 81%
- viability at 10 µM [26]: 103%
- viability at 50 µM (Raji [27]): 106%
- viability at 1 µM [28]: 90.2%
- IC50 [29]: > 100 µM
- viability at 50 µM (K562 [30]): 97.3%
- IC50 (Daudi): 25 µM
- viability at 1 µM (Raji [31]): 102%
- HC50 at 10 min [32]: > 525 nM
- viability at 1 µM (SiHa [33]): 98%
- IC50 (HeLa [34]): 25 µM
- IC50 (Raji [35]): > 100 µM
- viability at 100 µM (HeLa [36]): 36.7%
- viability at 100 µM (Raji [37]): 94.3%
- viability at 100 µM [38]: 68.9%
- viability at 0.1 µM (Raji [39]): 92.9%
- viability at 50 µM (HeLa [40]): 48.7%
- viability at 50 µM (NCI-H69 [41]): 76.7%
- viability at 1 µM (NCI-H69 [42]): 84.3%
- viability at 0.1 µM [43]: 83.6%
- viability at 10 µM (HeLa [44]): 72.1%
- viability at 100 µM [45]: 83.2%
- viability at 0.1 µM [46]: 100%
- viability at 10 µM (NCI-H69 [47]): 79%
- IC50 [48]: > 100 µM
- viability at 1 µM (HeLa [49]): 77.4%
- IC50 (SiHa [50]): > 100 µM
